How the values were obtained:
MDX-mice [1] = assay: Grip strength test (front-leg muscle strength) in MDX mice; format: in vivo; conditions: for GS/BW trial 5 / GS/BW trial 1 / Grip Strength trial 1 / Grip Strength trial 5: MDX-mice treated 16 weeks via chow (150 ppm BAY 41-2272 or 100 ppm Finerenone), Mean ± SEM; for GS/BW trial 5 / GS/BW trial 1: grip strength related to body weight; for GS/BW trial 5: fatigued mice; for GS/BW trial 1: rested mice; for Grip Strength trial 1: highest force from rested mice; for Grip Strength trial 5: highest force in fatigued mice; for Effect on muscle strength (grip strength), in words: MDX-mice treated 16 weeks, each compound alone; for Efficacy of monotherapy compared with combination of steroidal MR antagonist (spironolactone) and ACE inhibitor (lisinopril): regarding grip strength, base myocardial strain rate and forces after lengthening contractions of the EDL, comparator from Lowe et al.
Description: (§1) Preferentially mice were used, especially transgenic mice (B6.Cg-^Terctm1Rdp Dmd^mdx-4Cv/BlauJ; Jackson Laboratories, strain Nr.: 023535; Dystrophin-deficient, utrophin haplo-insufficient (utrn +/−; mdx)). These so called MDX mice carry a mutation in the dystrophin gene which reflects the phenotype and clinical situation of patients with muscular dystrophies (Sacco et al.; Cell. 2010 Dec. 23; 143(7):1059-71, Mourkioti et al. Nat Cell Biol. 2013 August; 15(8):895-904).
(§2) As read-outs were preferentially used: • In vitro, hydroxyproline measurement to assess fibrotic tissue. To analyze the collagen content in tissue samples, hydroxyproline assays were performed. After digestion of the tissue (e.g. heart and muscle) in 6M HCl for three hours at 120° C., chloramine T (0.06 M) was added and samples were mixed and incubated for 20 min at room temperature. 3.15 M perchloric acid and 20% p-dimethylaminobenzaldehyde were added and samples were incubated for additional 20 min at 60° C. The absorbance was determined at 557 nm. • In vitro, semiquantitative RT/PCR (TaqMan PCR) was used to assess gene expression. Mice were euthanized and hearts and muscles (e.g. EDL=extensor digitorum longus muscle, diaphragm) were collected. Total RNA was isolated and gene expression was semiquantified after reverse transcription (RT) reaction via TaqMan polymerase chain reaction (PCR). • In vitro, histopathology to assess heart and muscle damage. Mice were euthanized and hearts and muscles (e.g. EDL, diaphragm) were collected. Cryosections were prepared and stained with Hematoxylin and Eosin (H&E) to assess overall histopathology. • Ex vivo, contractility measurements of muscle contraction in isolated muscles (e.g. EDL, diaphragm) to assess muscle function and contractility. Isolated muscles were stretched to optimal length using twitch contractions (evoked by a single 4 ms pulse). After 10 minutes, a tetanus contraction was performed (150 Hz for 250 ms). After another 5 min rest period, 6 eccentric contractions (150 Hz for 450 ms, subjected to a 3% stretch for the final 200 ms of contraction) were done with two minutes of rest between the first 5 stimulations and 15 minutes of rest between the fifth and sixth stimulation. • In vivo, non-invasive echocardiography and computer tomography to assess heart and cardiovascular function. Mice were anaesthetized and heart structure and function was assessed non-invasively by using the echocardiograph type Vevo2100. In addition, cardiac function was investigated in anesthetized mice by using magnetic resonance imaging (MRI) technique on a 9.4 or 11.7 Tesla 30 mm bore system (Bruker Biospin) together with standard electrocardiographic (ECG). Myocardial strain and strain rate were assessed using vector-based tracking software (Vector Velocity Imaging, Siemens). • In vivo, invasive left-ventricular function and pressure-volume relationship to assess heart and cardiovascular function. Invasive left-ventricular hemodynamics were performed in anaesthetized mice using a pressure catheter and a PN loop catheter. • In vivo assessment of muscle force (Hanging wire test, four limb hanging test, grip strength test) to asses muscle function. For the hanging wire and four limb hanging test, conscious mice are freely hanging on a grid and hanging time is recorded and corrected for body weight of the mice. The grip strength (GS) measurements to investigate front-leg muscle strength were performed in conscious mice by using a grip strength meter (Columbus Instruments). Mice were trained to hold on with their front paws on a wire mesh grid and carefully pulled backwards. This procedure was repeated up to 5 times with one minute breaks between measurements and the maximal power in Newton (N) was registered. The highest grid strength value (GS) in Newton was reported and related to body weight (BW) in mg. […] (Table 1). • In vivo assessment of physical capacity was assessed. […]

MDX-mice [2] = assay: EDL eccentric contractions (ex vivo contractility of isolated muscle from treated mice); format: in vivo; conditions: for Ecc2 (% Ecc1) / Ecc5 (% Ecc1) / Post-rest Ecc6 (% Ecc1): EDL of MDX-mice treated 16 weeks via chow (150 ppm BAY 41-2272 or 100 ppm Finerenone), Mean ± SEM; for Ecc2 (% Ecc1): 2nd eccentric contraction; for Ecc5 (% Ecc1): 5th eccentric contraction; for Post-rest Ecc6 (% Ecc1): 6th eccentric contraction after 15 minutes of rest; for Effect on muscle strength (EDL eccentric contractions), in words: MDX-mice treated 16 weeks
Description: as §1, §2

MDX-mice [3] = assay: Endocardial circumferential peak systolic strain rate at the base of the heart (MRI, vector-based tracking); format: in vivo; conditions: for Effect on heart function (systolic strain rate), in words: MDX-mice treated 16 weeks; for Base_PeakSysSR_Lat (endocardial circumferential S−1) / Base_PeakSysSR_Mean (endocardial circumferential S−1) / Base_PeakSysSR_Septum (endocardial circumferential S−1): MDX-mice treated 16 weeks via chow (150 ppm BAY 41-2272 or 100 ppm Finerenone), base of the heart, Mean ± SEM; for Base_PeakSysSR_Lat (endocardial circumferential S−1): lateral; for Base_PeakSysSR_Mean (endocardial circumferential S−1): mean; for Base_PeakSysSR_Septum (endocardial circumferential S−1): septum
Description: as §1, §2

[4] = rats, [14C]-labeled; Kolkhof et al. 2014; cited from earlier work
DMD boys = conditions: added to background ACE inhibitor or ARB therapy; at 12 months; Raman et al. 2015; cited from earlier work

Nc1nc(-c2nn(Cc3ccccc3F)c3ncccc23)ncc1C1CC1 [BAY41-2272, 3-(4-amino-5-cyclopropylpyrimidin-2-yl)-1-(2-fluorobenzyl)-1H-pyrazolo[3,4-b]pyridine]
GS/BW trial 5 (MDX-mice [1]): 33.9 ± 0.9 mN/g
GS/BW trial 1 (MDX-mice [1]): 38.3 ± 1.1 mN/g
Grip Strength trial 1 (MDX-mice [1]): 1.0 ± 0.04 N
Grip Strength trial 5 (MDX-mice [1]): 0.9 ± 0.04 N
Effect on muscle strength (grip strength), in words (MDX-mice [1]): improvement of muscle strength
Ecc2 (% Ecc1) (MDX-mice [2]): 86 ± 2 % Ecc1
Ecc5 (% Ecc1) (MDX-mice [2]): 60 ± 5 % Ecc1
Post-rest Ecc6 (% Ecc1) (MDX-mice [2]): 60 ± 5 % Ecc1
Effect on muscle strength (EDL eccentric contractions), in words (MDX-mice [2]): improvement of muscle strength
Effect on heart function (systolic strain rate), in words (MDX-mice [3]): attenuation of heart function decline
Base_PeakSysSR_Lat (endocardial circumferential S−1) (MDX-mice [3]): 0.37 ± 0.02 S−1
Base_PeakSysSR_Mean (endocardial circumferential S−1) (MDX-mice [3]): 0.36 ± 0.02 S−1
Base_PeakSysSR_Septum (endocardial circumferential S−1) (MDX-mice [3]): 0.39 ± 0.03 S−1

CCOc1ncc(C)c2c1[C@H](c1ccc(C#N)cc1OC)C(C(N)=O)=C(C)N2 [Finerenone, (S)-4-(4-Cyano-2-methoxyphenyl)-5-ethoxy-2,8-dimethyl-1,4-dihydro-1,6-naphthyridin-3-carboxamid]
Tissue distribution into cardiac and kidney tissues [4]: balanced distribution
GS/BW trial 5 (MDX-mice [1]): 37.5 ± 1.1 mN/g
GS/BW trial 1 (MDX-mice [1]): 40.3 ± 1 mN/g
Grip Strength trial 1 (MDX-mice [1]): 1.1 ± 0.04 N
Grip Strength trial 5 (MDX-mice [1]): 1.1 ± 0.04 N
Effect on muscle strength (grip strength), in words (MDX-mice [1]): improvement of muscle strength
Efficacy of monotherapy compared with combination of steroidal MR antagonist (spironolactone) and ACE inhibitor (lisinopril) (MDX-mice [1]): superior
Efficacy of monotherapy compared with combination of steroidal MR antagonist (spironolactone) and ACE inhibitor (lisinopril) (MDX-mice [1]; listed as (S)-4-(4-Cyano-2-methoxyphenyl)-5-ethoxy-2,8-dimethyl-1,4-dihydro-1,6-naphthyrid): as effective as
Ecc2 (% Ecc1) (MDX-mice [2]): 94 ± 5 % Ecc1
Ecc5 (% Ecc1) (MDX-mice [2]): 71 ± 7 % Ecc1
Post-rest Ecc6 (% Ecc1) (MDX-mice [2]): 72 ± 6 % Ecc1
Effect on muscle strength (EDL eccentric contractions), in words (MDX-mice [2]): improvement of muscle strength
Effect on heart function (systolic strain rate), in words (MDX-mice [3]): attenuation of heart function decline
Base_PeakSysSR_Lat (endocardial circumferential S−1) (MDX-mice [3]): 0.39 ± 0.04 S−1
Base_PeakSysSR_Mean (endocardial circumferential S−1) (MDX-mice [3]): 0.35 ± 0.03 S−1
Base_PeakSysSR_Septum (endocardial circumferential S−1) (MDX-mice [3]): 0.34 ± 0.04 S−1

COC(=O)[C@@H]1CC2=CC(=O)CC[C@]2(C)[C@@]23O[C@@H]2C[C@@]2(C)[C@@H](CC[C@@]24CCC(=O)O4)[C@H]13 [eplerenone]
Effect on left ventricular systolic function (LV circumferential strain) (DMD boys): attenuates the progressive decline in left ventricular systolic function

— US11439628B2, “Use of non-steroidal mineralocorticoid receptor antagonists alone or in combination for the treatment of muscular or neuromuscular diseases” (Bayer Aktiengesellschaft, priority 2018, dated 2022)
